Measured values published in ChEMBL document CHEMBL1133901, “Synthesis and potassium channel opening activity of substituted 10H-benzo[4,5]furo[3,2-b]indole-and 5,10-dihydro-indeno[1,2-b]indole-1-carboxylic acids” (Bioorg Med Chem Lett, 2001).

Tests used:
Rattus norvegicus [1] = organism: Rattus norvegicus; assay: Concentration that relaxed KCl-induced contractions in rat detrusor strips by 50%; format: functional
Rattus norvegicus [2] = organism: Rattus norvegicus; assay: Concentration that relaxed KCl-induced contractions in rat aortic rings by 50%; format: functional; conditions: Aorta

Row | SMILES | IC50 (Rattus norvegicus [1]) [µM] | IC50 (Rattus norvegicus [2]) [µM]
1 | NS(=O)(=O)c1ccc2[nH]c3c(c2c1)Cc1c(C(=O)O)cccc1-3 | > 30 | 
2 | NC(=O)c1cccc2c1[nH]c1c3cc(Br)ccc3oc21 | > 30 | 
3 | O=C(O)c1cccc2c1Cc1c-2[nH]c2ccc(OC(F)(F)F)cc12 | 15.4 | 
4 | O=C(O)c1cccc2c3c([nH]c12)-c1cc(Br)ccc1C3 |  | 210
5 | CC1(C)c2ccc([N+](=O)[O-])cc2-c2[nH]c3c(C(=O)O)cccc3c21 | 5.2 | 17.2
6 | O=Cc1cccc2c1[nH]c1c3cc(Br)ccc3oc21 | > 30 | 
7 | O=C(O)c1cccc2c1[nH]c1c3cc([N+](=O)[O-])ccc3oc21 | 6.3 | 
8 | O=C(O)c1cccc2c1[nH]c1c3ccccc3oc21 | 30 | 
9 | O=C(O)c1cccc2c1Cc1c-2[nH]c2ccc(I)cc12 | 10.1 | 
10 | COC(=O)c1cccc2c1[nH]c1c3cc(Br)ccc3oc21 | > 30 | 
11 | O=C(O)c1cccc2c1[nH]c1c3cc(I)ccc3oc21 | 6.1 | 
12 | O=C(O)c1cccc2c1Cc1c-2[nH]c2ccc(Br)cc12 | 4.4 | 109
13 | O=C(O)c1cccc2c1Cc1c-2[nH]c2ccc(Cl)cc12 | 22.6 | 
14 | O=C(O)c1cccc2c1[nH]c1c3cc(Cl)ccc3oc21 | 5.8 | 
15 | O=C(O)c1cccc2c1[nH]c1c3cc(Br)ccc3oc21 | 15.1 | 118
16 | Cn1c2c(C(=O)O)cccc2c2oc3ccc(Br)cc3c21 | > 30 | 
